Two molecules from patent publication US4636515A, “Non-classical topical treatment for glaucoma” (University of Iowa Research Foundation, priority 1984, dated 1987) can be followed below.

The target of assay [1] is carbonic anhydrase. The assay can be described thus: in vitro carbonic anhydrase activity, simplified method of Maren. The class given is biochemical. As to the method: The procedure required the use of a specialized glass reaction vessel to which was added 0.4 ml phenol red indicator (0.00125%), 0.25 to 0.30 ml heparinized blood containing 2 enzyme units of carbonic anhydrase, 0.1 ml drug solution (0.01 to 100 mg/L) and 0.1 ml of 0.255 M carbonate buffer. […] Each reagent was added at a specified time and in a specified order. […] Reaction time was the time for the uncatalyzed reaction time. […] By varying the time before adding the carbonate buffer and then determining the reaction time, the equilibration time can be accurately determined. The reaction time was averaged over three determinations. A range of drug concentrations were reacted and the concentration of drug causing 50% inhibition of enzyme (I50) read from a plot of reaction time against drug concentration. (If two enzyme units are added, then the concentration of drug yielding a reaction time corresponding to the activity of one unit is taken as the I50).

In assay [2] the test system is eye of normal adult white rabbits. The assay can be described thus: Salted rabbit test: intraocular pressure after topical instillation. The assay is classed as in vivo. The note with it: for IOP change, Av. Chg.: 1% w/v suspension, 3 drops topical, vs placebo fellow eye, six rabbits. The method, then: In particular, an initial drop from the test formulation followed by two drops at one minute intervals are applied to one eye of each of six adult white rabbits that had been maintained on a diet containing 0.5% sodium. The treated eye was selected randomly, whereas, the fellow eye received placebo; the observer was masked. Results identified a small but significant reduction of intraocular pressure in the treated eye at 30, 60 and 120 minutes.
One drop, followed by two drops each at one minute intervals, was applied to one eye of normal adult white rabbits. Six rabbits were used in the experiment. The treated eye was selected randomly, whereas, the fellow eye received placebo. The observer was masked. The intraocular pressure (IOP) was measured with a Digilab pneumotonometer, initially and every ten minutes for 120 minutes following instillation of the anti-glaucoma agent. A drop of local anesthetic was applied just prior to making the measurement.

Consider `CNS(=O)(=O)c1nnc(NC(C)=O)s1` [methyl acetazolamide, N-methyl-2-acetylamino-1,3,4-thiadiazole-5-sulfonamide], for which the “I50 (concentration of drug causing 50% inhibition of enzyme), averaged” value in assay [1] (heparinized blood containing 2 enzyme units of carbonic anhydrase, 0° C.) was found to be 0.520 mg/L. In addition, the “IOP change, Av. Chg.” value in assay [2] (10 minutes) is -2 mm Hg; in assay [2] (20 minutes) it was -1.67 mm Hg; in assay [2] (30 minutes), -2.33 mm Hg; in assay [2] (40 minutes), -0.40 mm Hg; in assay [2] (50 minutes) it was -1.83 mm Hg; in assay [2] (60 minutes), -1.67 mm Hg. For the same molecule, the “IOP change, Av. Chg.” value in assay [2] (70 minutes) is -1.67 mm Hg; in assay [2] (80 minutes), -2.14 mm Hg; in assay [2] (90 minutes), -1.50 mm Hg; in assay [2] (100 minutes), -2.67 mm Hg; in assay [2] (110 minutes), -0.67 mm Hg; in assay [2] (120 minutes), -1.5 mm Hg. Also, the “effect on intraocular pressure (IOP) in vivo (in words)” value in assay [2] (after topical administration) is listed as “able to reduce intraocular pressure”. Also, the “lowering of IOP, statistical significance” value in assay [2] (all time intervals, 10 to 120 minutes) was “statistically significant”.

In the case of `Nc1ccc(S(N)(=O)=O)cc1` [sulfanilamide, reference compound], in assay [1] (time between addition of drug solution and carbonate buffer), the “time required for carbonic anhydrase to reach an equilibrium with drug” value was found to be 10 s.
